The values that follow come from patent US20240270762A1, “PENICILLIN-BINDING PROTEIN INHIBITORS” (priority 2021, published 2024).

Structures are written as SMILES. ≈ marks a conversion by molar mass, not a printed value.

Experiment [1] addresses T1, PBP3 from Escherichia coli (K-12) (Escherichia coli, UniProt P0AD68).
T1 construct: made in house
As to the kind of experiment: Bocillin-FL fluorescence polarization competition binding, E. coli PBP3. The method in brief: (§1)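 Purified PBP was preincubated with inhibitor (E. coli PBP3 1.5 μM, 30 min; P. aeruginosa PBP3 0.75 μM, A. baumannii PBP3 0.2 μM and PBP1a 1 μM, 15 min), then Bocillin-FL (0.1 μM; 0.05 μM for PBP1a) added and FP read up to 60 min. EC50 = 50% loss of bound probe.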
On the technique in general: In fluorescence polarisation assays a small probe gives low polarisation when free and higher when bound to something large.

The target in experiment [2] is T2, PBP3 from Pseudomonas aeruginosa (PAO1) (Pseudomonas aeruginosa, UniProt G3XD46).
T2 construct: made in house
As to the kind of experiment: Bocillin-FL fluorescence polarization competition binding, P. aeruginosa PBP3. Conditions: Binding affinity to P. aeruginosa PBP3; fluorescence polarization competition binding assay using Bocillin-FL; read-out: P. aeruginosa PBP3 Potency. The method in brief:
as §1

Experiment [3] has as its target T3, PBP3 from Acinetobacter baumannii (ATCC 19606) (Acinetobacter baumannii, UniProt A0ABX6CK25).
T3 sequence (A0ABX6CK25 64-610): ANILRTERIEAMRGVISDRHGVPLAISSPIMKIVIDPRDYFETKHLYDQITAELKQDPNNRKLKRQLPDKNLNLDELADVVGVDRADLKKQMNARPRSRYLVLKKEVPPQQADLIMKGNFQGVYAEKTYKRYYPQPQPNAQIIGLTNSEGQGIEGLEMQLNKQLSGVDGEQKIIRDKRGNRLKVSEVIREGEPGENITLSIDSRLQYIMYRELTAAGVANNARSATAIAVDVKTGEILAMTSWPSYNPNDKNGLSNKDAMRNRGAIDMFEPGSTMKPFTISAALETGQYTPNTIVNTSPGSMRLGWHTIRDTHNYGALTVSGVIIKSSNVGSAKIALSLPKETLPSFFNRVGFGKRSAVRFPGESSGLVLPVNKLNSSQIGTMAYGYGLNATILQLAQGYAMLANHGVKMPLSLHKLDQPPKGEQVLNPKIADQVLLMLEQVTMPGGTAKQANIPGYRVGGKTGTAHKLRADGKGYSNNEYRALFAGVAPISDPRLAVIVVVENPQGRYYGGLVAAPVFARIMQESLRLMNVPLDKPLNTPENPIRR
As to the kind of experiment: Bocillin-FL fluorescence polarization competition binding, A. baumannii PBP3. The note with it: fluorescence polarization competition binding assay using Bocillin-FL; read-out: A. baumannii PBP3 Potency. An outline of the steps:
as §1

The subject of the next experiment is A. baumannii ATCC 17978. As to the kind of experiment: microbe, parasite or virus in culture. Format: cell-based. Conditions: Acinetobacter baumannii, ATCC17978, read-out: MIC, A. baumannii ATCC 17978.
For experiment [4], the system named is P. aeruginosa (ΔmexAB-oprM). As to the kind of experiment: Broth microdilution MIC in iron-depleted CAMHB (IDM). Format: cell-based. The note with it: Pseudomonas aeruginosa; iron-depleted CAMHB (IDM); […]; read-out: Minimum inhibitory concentration, P. aeruginosa ΔmexAB-oprM. In general terms: Dilution methods test growth across graded concentrations, often in twofold steps.

The next experiment relates to P. aeruginosa CDC-0054. As to the kind of experiment: microbe, parasite or virus in culture. The note with it: Pseudomonas aeruginosa, CDC0054, read-out: Minimum inhibitory concentration, P. aeruginosa CDC-0054. Format: cell-based.
The next experiment has as its system P. aeruginosa CDC-0090. As to the kind of experiment: microbe, parasite or virus in culture. Format: cell-based. Conditions: Pseudomonas aeruginosa, CDC0090, read-out: Minimum inhibitory concentration, P. aeruginosa CDC-0090.
In another experiment the test system is A. baumannii 1258916. As to the kind of experiment: microbe, parasite or virus in culture. Format: cell-based, Acinetobacter baumannii. Conditions: Acinetobacter baumannii, 1258916, read-out: MIC, A. baumannii 1258916.
For a further experiment, the system named is A. baumannii CDC-0045. As to the kind of experiment: microbe, parasite or virus in culture. Format: cell-based. Conditions: Acinetobacter baumannii, CDC0045, read-out: MIC, A. baumannii CDC-0045.
The next experiment relates to A. baumannii CDC-0083. As to the kind of experiment: microbe, parasite or virus in culture. Format: cell-based. Conditions: Acinetobacter baumannii, CDC0083, read-out: MIC, A. baumannii CDC-0083.
The test system of experiment [5] is B. thailandensis ATCC 700388. As to the kind of experiment: microbe, parasite or virus in culture. Format: cell-based. Conditions: Burkholderia thailandensis, ATCC700388, read-out: Minimum inhibitory concentration (MIC), B. thailandensis ATCC 700388.

T1 sequence (P0AD68 1-577): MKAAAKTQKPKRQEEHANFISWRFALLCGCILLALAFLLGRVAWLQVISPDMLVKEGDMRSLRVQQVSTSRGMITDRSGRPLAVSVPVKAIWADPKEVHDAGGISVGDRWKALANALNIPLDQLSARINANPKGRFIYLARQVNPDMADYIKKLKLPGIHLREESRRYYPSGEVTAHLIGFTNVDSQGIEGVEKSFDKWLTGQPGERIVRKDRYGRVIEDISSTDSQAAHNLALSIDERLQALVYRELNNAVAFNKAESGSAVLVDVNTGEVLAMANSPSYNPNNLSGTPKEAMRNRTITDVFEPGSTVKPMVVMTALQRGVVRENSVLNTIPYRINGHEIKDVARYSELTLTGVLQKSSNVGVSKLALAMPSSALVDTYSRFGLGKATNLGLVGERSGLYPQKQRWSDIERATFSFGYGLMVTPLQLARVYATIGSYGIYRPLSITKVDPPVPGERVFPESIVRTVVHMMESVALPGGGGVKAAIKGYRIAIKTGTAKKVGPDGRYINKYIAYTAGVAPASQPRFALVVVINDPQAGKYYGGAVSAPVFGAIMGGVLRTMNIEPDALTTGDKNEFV
T2 sequence (G3XD46 whole entry): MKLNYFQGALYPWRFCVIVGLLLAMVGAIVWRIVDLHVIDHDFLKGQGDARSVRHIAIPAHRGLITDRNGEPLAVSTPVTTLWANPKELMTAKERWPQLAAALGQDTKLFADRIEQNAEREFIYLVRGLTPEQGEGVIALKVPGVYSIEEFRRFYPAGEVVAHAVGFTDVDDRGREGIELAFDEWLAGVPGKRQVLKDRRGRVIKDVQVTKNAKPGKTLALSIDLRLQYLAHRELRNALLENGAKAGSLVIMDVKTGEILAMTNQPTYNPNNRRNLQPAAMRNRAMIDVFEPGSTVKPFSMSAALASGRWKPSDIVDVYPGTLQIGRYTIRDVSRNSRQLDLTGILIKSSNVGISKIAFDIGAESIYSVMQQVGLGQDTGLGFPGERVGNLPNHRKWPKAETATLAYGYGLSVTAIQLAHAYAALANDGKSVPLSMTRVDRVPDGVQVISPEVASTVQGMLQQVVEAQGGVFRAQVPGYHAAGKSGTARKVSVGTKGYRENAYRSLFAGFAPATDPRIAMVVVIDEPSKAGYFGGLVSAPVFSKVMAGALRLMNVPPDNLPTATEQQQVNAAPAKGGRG

Consider `O=C(NCCCN1CCN(C(=O)NC(C(=O)N[C@H]2Cc3ccc(F)c(C(=O)O)c3OB2O)c2cc(F)c(O)c(O)c2Cl)C(=O)C1=O)c1ccnc(F)c1` (stereo partly drawn) [Example 466, (3R)-3-(2-(2-chloro-5-fluoro-3,4-dihydroxyphenyl)-2-(4-(3-(2-fluoroisonicotinamido)propyl)-2,3-dioxopiperazine-1-carboxamido)acetamido)-7-fluoro-2-hydroxy-3,4-dihydro-2H-benzo[e][1,2]oxaborinine-8-carboxylic acid], for which the 50% effective concentration (EC50) (in general, the concentration that produces a half-maximal response) in experiment [1] was under 10 µM. In addition, the IC50 in experiment [2] and in experiment [3] was under 10 µM throughout. For the same compound, the MIC in the experiment on A. baumannii ATCC 17978 was under 1 µg/mL; in experiment [4] it was under 1 µg/mL; with P. aeruginosa CDC-0054, under 1 µg/mL; in the experiment with P. aeruginosa CDC-0090 it was 2 to 4 µg/mL (≈ 2.62 to 5.24 µM); in the experiment on A. baumannii 1258916, 2 to 4 µg/mL (≈ 2.62 to 5.24 µM); in the experiment on A. baumannii CDC-0045, 2 to 4 µg/mL (≈ 2.62 to 5.24 µM). The MIC (in the experiment with A. baumannii CDC-0083; in experiment [5]) was 2 to 4 µg/mL (≈ 2.62 to 5.24 µM) throughout.
